From ChEMBL document CHEMBL3286221, “Design and synthesis of novel 1,2,3-triazole derivatives of coronopilin as anti-cancer compounds” (Eur J Med Chem, 2014)

Assays:
PC-3 [1] = test: Cytotoxicity against human PC3 cells after 48 hrs by sulforhodamine B assay; assay type: functional, cell-based; details: PC-3, 48 h
[2] = Cytotoxicity against human HCT15 cells after 48 hrs by sulforhodamine B assay; assay type: functional, cell-based; details: HCT-15, 48 h
HeLa = test: Cytotoxicity against human HeLa cells after 48 hrs by sulforhodamine B assay; assay type: functional, cell-based
A549 = test: Cytotoxicity against human A549 cells after 48 hrs by sulforhodamine B assay; assay type: functional, cell-based; details: A549, 48 h
MCF7 = test: Cytotoxicity against human MCF7 cells after 48 hrs by sulforhodamine B assay; assay type: functional, cell-based; details: MCF7, 48 h
THP-1 = test: Cytotoxicity against human THP1 cells after 48 hrs by sulforhodamine B assay; assay type: functional, cell-based; details: THP-1, 48 h
PC-3 [3] = test: Cell cycle arrest in human PC3 cells assessed as accumulation at sub-G1 phase at 5 uM after 24 hrs by propidium iodide staining-based flow cytometric analysis (reference value: 13.1%); assay type: functional
PC-3 [4] = test: Cell cycle arrest in human PC3 cells assessed as accumulation at G0/G1 phase at 5 uM after 24 hrs by propidium iodide staining-based flow cytometric analysis (reference value: 68.2%); assay type: functional
PC-3 [5] = test: Cell cycle arrest in human PC3 cells assessed as accumulation at S phase at 5 uM after 24 hrs by propidium iodide staining-based flow cytometric analysis (reference value: 8.5%); assay type: functional
PC-3 [6] = test: Cell cycle arrest in human PC3 cells assessed as accumulation at M phase at 5 uM after 24 hrs by propidium iodide staining-based flow cytometric analysis (reference value: 3%); assay type: functional
PC-3 [7] = test: Cell cycle arrest in human PC3 cells assessed as accumulation at sub-G1 phase after 24 hrs by propidium iodide staining-based flow cytometric analysis; assay type: functional
PC-3 [8] = test: Cell cycle arrest in human PC3 cells assessed as accumulation at sub-G1 phase at 1 uM after 24 hrs by propidium iodide staining-based flow cytometric analysis (reference value: 13.1%); assay type: functional
PC-3 [9] = test: Cell cycle arrest in human PC3 cells assessed as accumulation at G0/G1 phase at 1 uM after 24 hrs by propidium iodide staining-based flow cytometric analysis (reference value: 68.2%); assay type: functional
PC-3 [10] = test: Cell cycle arrest in human PC3 cells assessed as accumulation at S phase at 1 uM after 24 hrs by propidium iodide staining-based flow cytometric analysis (reference value: 8.5%); assay type: functional
PC-3 [11] = test: Cell cycle arrest in human PC3 cells assessed as accumulation at M phase at 1 uM after 24 hrs by propidium iodide staining-based flow cytometric analysis (reference value: 3%); assay type: functional
PC-3 [12] = test: Cell cycle arrest in human PC3 cells assessed as accumulation at sub-G1 phase at 10 uM after 24 hrs by propidium iodide staining-based flow cytometric analysis (reference value: 13.1%); assay type: functional
PC-3 [13] = test: Cell cycle arrest in human PC3 cells assessed as accumulation at G0/G1 phase at 10 uM after 24 hrs by propidium iodide staining-based flow cytometric analysis (reference value: 68.2%); assay type: functional
PC-3 [14] = test: Cell cycle arrest in human PC3 cells assessed as accumulation at S phase at 10 uM after 24 hrs by propidium iodide staining-based flow cytometric analysis (reference value: 8.5%); assay type: functional
PC-3 [15] = test: Cell cycle arrest in human PC3 cells assessed as accumulation at M phase at 10 uM after 24 hrs by propidium iodide staining-based flow cytometric analysis (reference value: 3%); assay type: functional
[16] = target: Transcription factor p65 (Homo sapiens) (UniProt Q04206); test: Inhibition of NFkappaB p65 binding to consensus DNA sequence in human PC3 cells after 24 hrs by ELISA; assay type: cell-based; details: PC-3
Chain of Transcription factor p65 (Homo sapiens) (Q04206 whole entry): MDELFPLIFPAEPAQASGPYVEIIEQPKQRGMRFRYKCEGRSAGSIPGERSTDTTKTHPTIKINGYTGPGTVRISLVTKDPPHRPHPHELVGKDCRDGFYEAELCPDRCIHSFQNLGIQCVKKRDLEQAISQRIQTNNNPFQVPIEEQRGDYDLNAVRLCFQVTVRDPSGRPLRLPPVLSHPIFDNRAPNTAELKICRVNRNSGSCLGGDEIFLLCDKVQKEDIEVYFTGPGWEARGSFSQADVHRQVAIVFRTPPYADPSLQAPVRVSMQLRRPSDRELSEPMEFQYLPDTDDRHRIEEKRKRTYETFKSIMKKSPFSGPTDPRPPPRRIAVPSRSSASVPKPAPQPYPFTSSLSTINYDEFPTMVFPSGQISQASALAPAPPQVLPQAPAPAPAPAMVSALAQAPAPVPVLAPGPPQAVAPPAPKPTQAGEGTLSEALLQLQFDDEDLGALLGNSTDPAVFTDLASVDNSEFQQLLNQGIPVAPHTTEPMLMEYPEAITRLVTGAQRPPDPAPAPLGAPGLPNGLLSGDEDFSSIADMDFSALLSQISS

[17] = target: Transcription factor p65 (Homo sapiens) (UniProt Q04206); test: Inhibition of NFkappaB p65 binding to consensus DNA sequence in human PC3 cells after 24 hrs by Western blotting analysis; assay type: cell-based; details: PC-3
[18] = target: Transcription factor p65 (Homo sapiens) (UniProt Q04206); test: Inhibition of NFkappaB p65 binding to consensus DNA sequence in human PC3 cells at 100 uM after 24 hrs by ELISA relative to control; assay type: cell-based; details: PC-3
[19] = target: Transcription factor p65 (Homo sapiens) (UniProt Q04206); test: Inhibition of NFkappaB p65 binding to consensus DNA sequence in human PC3 cells at 100 uM after 24 hrs by Western blotting analysis relative to control; assay type: cell-based; details: PC-3

| SMILES | IC50 (PC-3 [1]) | IC50 [2] | IC50 (HeLa) | IC50 (A549) | IC50 (MCF7) | IC50 (THP-1) | further results |
| --- | --- | --- | --- | --- | --- | --- | --- |
| C=C1C(=O)O[C@@H]2[C@H]1CC[C@H](C)[C@]1(O)[C@@H](n3cc(CNc4ccccc4F)nn3)CC(=O)[C@@]21C | 3.3 µM | 100 µM | 3.7 µM | 34 µM | 5.1 µM | – | – |
| C=C1C(=O)O[C@@H]2[C@H]1CC[C@H](C)[C@]1(O)[C@@H](n3cc(COc4ccccc4F)nn3)CC(=O)[C@@]21C | 4.3 µM | 23 µM | 3.9 µM | 6.3 µM | 4.3 µM | 25 µM | – |
| C=C1C(=O)O[C@@H]2[C@H]1CC[C@H](C)[C@]1(O)[C@@H](n3cc(CNn4ccc5cc(Br)ccc54)nn3)CC(=O)[C@@]21C | – | 26 µM | 7.2 µM | 100 µM | 4.5 µM | – | – |
| C=C1C(=O)O[C@@H]2[C@H]1CC[C@H](C)[C@]1(O)[C@@H](n3cc(COc4ccc(C(F)(F)F)cc4)nn3)CC(=O)[C@@]21C | 6.4 µM | 100 µM | 3.5 µM | 3.8 µM | 13 µM | 48 µM | – |
| CC[C@@]1(O)C(=O)OCc2c1cc1n(c2=O)Cc2cc3ccccc3nc2-1 [CAMPTOTHECIN] | – | – | – | – | – | – | Activity (PC-3 [3]): 60.44%; Activity (PC-3 [4]): 30.17%; Activity (PC-3 [5]): 4.94%; Activity (PC-3 [6]): 4.76% |
| C=C1C(=O)O[C@@H]2[C@H]1CC[C@H](C)[C@]1(O)[C@@H](n3cc(COc4ccccc4Br)nn3)CC(=O)[C@@]21C | 5.6 µM | 12 µM | 4.8 µM | 8.8 µM | 3.4 µM | 19 µM | – |
| C=C1C(=O)O[C@@H]2[C@H]1CC[C@H](C)[C@]1(O)[C@@H](n3cc(COc4ccccc4Cl)nn3)CC(=O)[C@@]21C | 3.1 µM | 5.3 µM | 3.6 µM | 4.2 µM | 9.7 µM | 3.8 µM | Activity (PC-3 [7]): Dose-dependent effect; Activity (PC-3 [8]): 38.8%; Activity (PC-3 [9]): 52.3%; Activity (PC-3 [10]): 4.2%; Activity (PC-3 [11]): 1%; Activity (PC-3 [3]): 39.9%; Activity (PC-3 [4]): 51.2%; Activity (PC-3 [5]): 3.5%; Activity (PC-3 [6]): 1.9%; Activity (PC-3 [12]): 49.2%; Activity (PC-3 [13]): 50.7%; Activity (PC-3 [14]): 3%; Activity (PC-3 [15]): 1%; inhibition [16]: Dose-dependent effect; inhibition [17]: Dose-dependent effect; inhibition [18]: 80%; inhibition [19]: 80% |
| C=C1C(=O)O[C@@H]2[C@H]1CC[C@H](C)[C@]1(O)[C@@H](n3cc(COc4ccc(C(C)C)cc4C)nn3)CC(=O)[C@@]21C | 7.5 µM | 45 µM | 6.8 µM | 21 µM | 32 µM | 33 µM | – |
| C=C1C(=O)O[C@@H]2[C@H]1CC[C@H](C)[C@]1(O)[C@@H](n3cc(COc4ccc(C)cc4)nn3)CC(=O)[C@@]21C | 7.6 µM | 39 µM | 100 µM | 21 µM | 4.2 µM | 26 µM | – |
| C=C1C(=O)O[C@@H]2[C@H]1CC[C@H](C)[C@]1(O)[C@@H](n3cc(CCC)nn3)CC(=O)[C@@]21C | 100 µM | 5.5 µM | 8.4 µM | 12 µM | 14 µM | – | – |
| C=C1C(=O)O[C@@H]2[C@H]1CC[C@H](C)[C@]1(O)[C@@H](n3cc(CNc4ccc(F)cc4)nn3)CC(=O)[C@@]21C | – | 6.5 µM | 15 µM | 100 µM | 15 µM | 100 µM | – |
| C=C1C(=O)O[C@@H]2[C@H]1CC[C@H](C)[C@]1(O)[C@@H](n3cc(COc4ccc(Cl)cc4)nn3)CC(=O)[C@@]21C | 5.2 µM | 27 µM | 3.6 µM | 4.1 µM | 7 µM | 12 µM | – |
| C=C1C(=O)O[C@@H]2[C@H]1CC[C@H](C)[C@]1(O)[C@@H](n3cc(COc4ccccc4C)nn3)CC(=O)[C@@]21C | 10 µM | 5.5 µM | 8.4 µM | 6.2 µM | 3.7 µM | 3.8 µM | – |
| C=C1C(=O)O[C@@H]2[C@H]1CC[C@H](C)[C@]1(O)[C@@H](n3cc(COc4ccc5ccccc5c4)nn3)CC(=O)[C@@]21C | 3.6 µM | 20 µM | 7.3 µM | 9 µM | 24 µM | 25 µM | – |
| C=C1C(=O)O[C@@H]2[C@H]1CC[C@H](C)[C@]1(O)[C@@H](n3cc(CCc4ccccc4)nn3)CC(=O)[C@@]21C | – | 4.3 µM | 16 µM | 5.8 µM | 16 µM | 100 µM | – |
| C=C1C(=O)O[C@@H]2[C@H]1CC[C@H](C)[C@]1(O)[C@@H](n3cc(CNc4ccccc4C)nn3)CC(=O)[C@@]21C | 4.6 µM | 8.5 µM | 3.9 µM | 23 µM | 15 µM | 17 µM | – |
| O=c1[nH]cc(F)c(=O)[nH]1 [FLUOROURACIL] | – | 4.5 µM | 4.9 µM | – | – | – | – |
| C=C1C(=O)O[C@@H]2[C@H]1CC[C@H](C)[C@]1(O)C=CC(=O)[C@@]21C [PARTHENIN] | 43.1 µM | 35.3 µM | – | 37.6 µM | 40.2 µM | 46.2 µM | – |
| COc1cccc2c1C(=O)c1c(O)c3c(c(O)c1C2=O)C[C@@](O)(C(=O)CO)C[C@@H]3O[C@H]1C[C@H](N)[C@H](O)[C@H](C)O1 [DOXORUBICIN] | – | – | – | – | 0.5 µM | – | – |
| C=C1C(=O)O[C@@H]2[C@H]1CC[C@H](C)[C@]1(O)[C@@H](n3cc(COc4ccc(Br)cc4)nn3)CC(=O)[C@@]21C | 4.7 µM | 48 µM | 6.5 µM | 14 µM | 16 µM | 10 µM | – |
| C=C1C(=O)O[C@@H]2[C@H]1CC[C@H](C)[C@]1(O)[C@@H](n3cc(CNc4ccccc4OC)nn3)CC(=O)[C@@]21C | – | 15 µM | 28 µM | 23 µM | 28 µM | 100 µM | – |
| CO[C@@]12[C@H](COC(N)=O)C3=C(C(=O)C(C)=C(N)C3=O)N1C[C@@H]1N[C@@H]12 [MITOMYCIN] | – | 0.5 µM | – | – | – | – | – |
| C=C1C(=O)O[C@@H]2[C@H]1CC[C@H](C)[C@]1(O)[C@@H](n3cc(CNc4ccc(COC(F)(F)F)cc4)nn3)CC(=O)[C@@]21C | – | 100 µM | 17 µM | 23 µM | 17 µM | – | – |
| C=C1C(=O)O[C@@H]2[C@H]1CC[C@H](C)[C@]1(O)[C@@H](n3cc(CNc4ccccc4Br)nn3)CC(=O)[C@@]21C | – | 20 µM | 4.8 µM | 100 µM | 4.2 µM | 100 µM | – |
